Experimental data published in PubChem BioAssay (NCI).
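Interpolation was linear, between the two tested concentrations surrounding the appropriate level; five concentrations were tested over 48 hours in 96-well plates. GI50 is the concentration that inhibits growth by half. TGI denotes the concentration required for complete inhibition of growth.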

How the values were obtained:
Test in all cases: DTP human tumour cell line panel, 48 h
K-562 leukemia = test system: K-562 leukemia
SNB-19 CNS = test system: SNB-19 CNS
IGROV1 ovarian = test system: IGROV1 ovarian
SF-539 CNS = test system: SF-539 CNS
EKVX NSCLC = test system: EKVX NSCLC
MDA-MB-468 breast = test system: MDA-MB-468 breast
HCT-15 colon = test system: HCT-15 colon
SK-MEL-28 melanoma = test system: SK-MEL-28 melanoma
786-0 renal = test system: 786-0 renal
CAKI-1 renal = test system: CAKI-1 renal
BT-549 breast = test system: BT-549 breast
UO-31 renal = test system: UO-31 renal
TK-10 renal = test system: TK-10 renal
SF-295 CNS = test system: SF-295 CNS
RXF 393 renal = test system: RXF 393 renal
SK-MEL-2 melanoma = test system: SK-MEL-2 melanoma
A498 renal = test system: A498 renal
CCRF-CEM leukemia = test system: CCRF-CEM leukemia
OVCAR-4 ovarian = test system: OVCAR-4 ovarian
U251 CNS = test system: U251 CNS
SNB-75 CNS = test system: SNB-75 CNS
RPMI-8226 leukemia = test system: RPMI-8226 leukemia
HCC-2998 colon = test system: HCC-2998 colon
UACC-62 melanoma = test system: UACC-62 melanoma
COLO 205 colon = test system: COLO 205 colon
SK-OV-3 ovarian = test system: SK-OV-3 ovarian
MDA-MB-435 = test system: MDA-MB-435
NCI/ADR-RES ovarian = test system: NCI/ADR-RES ovarian
OVCAR-3 ovarian = test system: OVCAR-3 ovarian
NCI-H460 lung = test system: NCI-H460 lung
MDA-MB-231 breast = test system: MDA-MB-231 breast
SK-MEL-5 melanoma = test system: SK-MEL-5 melanoma
NCI-H23 lung = test system: NCI-H23 lung
OVCAR-8 ovarian = test system: OVCAR-8 ovarian
OVCAR-5 ovarian = test system: OVCAR-5 ovarian
MCF7 breast = test system: MCF7 breast
LOX IMVI melanoma = test system: LOX IMVI melanoma
SF-268 CNS = test system: SF-268 CNS
HOP-62 NSCLC = test system: HOP-62 NSCLC
T-47D breast = test system: T-47D breast
KM12 colon = test system: KM12 colon
SN12C renal = test system: SN12C renal
HS 578T breast = test system: HS 578T breast
MALME-3M melanoma = test system: MALME-3M melanoma
HOP-92 NSCLC = test system: HOP-92 NSCLC
A549 NSCLC = test system: A549 NSCLC
SW-620 colon = test system: SW-620 colon
ACHN renal = test system: ACHN renal
NCI-H522 lung = test system: NCI-H522 lung
NCI-H226 lung = test system: NCI-H226 lung

Cc1ccc(/C(CSc2nnc(-c3c[nH]c4ccccc34)n2-c2ccccc2)=N/O)cc1
GI50 (K-562 leukemia): 2.01 µM
TGI (K-562 leukemia): 4.97 µM
GI50 (SNB-19 CNS): 1.87 µM
TGI (SNB-19 CNS): 3.97 µM
GI50 (IGROV1 ovarian): 2.09 µM
TGI (IGROV1 ovarian): 4.35 µM
GI50 (SF-539 CNS): 2.06 µM
TGI (SF-539 CNS): 4.41 µM
GI50 (EKVX NSCLC): 2.15 µM
TGI (EKVX NSCLC): 5.58 µM
GI50 (MDA-MB-468 breast): 1.5 µM
TGI (MDA-MB-468 breast): 2.91 µM
GI50 (HCT-15 colon): 1.75 µM
TGI (HCT-15 colon): 3.34 µM
GI50 (SK-MEL-28 melanoma): 5.67 µM
TGI (SK-MEL-28 melanoma): 38.7 µM
GI50 (786-0 renal): 10 µM
TGI (786-0 renal): 31.4 µM
GI50 (CAKI-1 renal): 1.63 µM
TGI (CAKI-1 renal): 3.06 µM
GI50 (BT-549 breast): 1.59 µM
TGI (BT-549 breast): 3.03 µM
GI50 (UO-31 renal): 1.82 µM
TGI (UO-31 renal): 4.15 µM
GI50 (TK-10 renal): 1.9 µM
TGI (TK-10 renal): 3.87 µM
GI50 (SF-295 CNS): 1.64 µM
TGI (SF-295 CNS): 3.18 µM
GI50 (RXF 393 renal): 1.85 µM
TGI (RXF 393 renal): 3.76 µM
GI50 (SK-MEL-2 melanoma): 2.88 µM
TGI (SK-MEL-2 melanoma): 8.96 µM
GI50 (A498 renal): 24.8 µM
TGI (A498 renal): 89.1 µM
GI50 (CCRF-CEM leukemia): 2.14 µM
TGI (CCRF-CEM leukemia): 4.98 µM
GI50 (OVCAR-4 ovarian): 1.75 µM
TGI (OVCAR-4 ovarian): 3.51 µM
GI50 (U251 CNS): 8.22 µM
TGI (U251 CNS): > 100 µM
GI50 (SNB-75 CNS): 1.4 µM
TGI (SNB-75 CNS): 2.77 µM
GI50 (RPMI-8226 leukemia): 2.05 µM
TGI (RPMI-8226 leukemia): 4.81 µM
GI50 (HCC-2998 colon): 2.09 µM
TGI (HCC-2998 colon): 3.93 µM
GI50 (UACC-62 melanoma): 1.69 µM
TGI (UACC-62 melanoma): 3.26 µM
GI50 (COLO 205 colon): 3.77 µM
TGI (COLO 205 colon): 37.4 µM
GI50 (SK-OV-3 ovarian): 1.68 µM
TGI (SK-OV-3 ovarian): 3.64 µM
GI50 (MDA-MB-435): 1.63 µM
TGI (MDA-MB-435): 3.05 µM
GI50 (NCI/ADR-RES ovarian): 2 µM
TGI (NCI/ADR-RES ovarian): 3.9 µM
GI50 (OVCAR-3 ovarian): 4.26 µM
TGI (OVCAR-3 ovarian): 25.5 µM
GI50 (NCI-H460 lung): 3.18 µM
TGI (NCI-H460 lung): 12.2 µM
GI50 (MDA-MB-231 breast): 1.77 µM
TGI (MDA-MB-231 breast): 3.33 µM
GI50 (SK-MEL-5 melanoma): 4.76 µM
TGI (SK-MEL-5 melanoma): 48.1 µM
GI50 (NCI-H23 lung): 10.1 µM
TGI (NCI-H23 lung): 52.2 µM
GI50 (OVCAR-8 ovarian): 2.19 µM
TGI (OVCAR-8 ovarian): 4.89 µM
GI50 (OVCAR-5 ovarian): 1.69 µM
TGI (OVCAR-5 ovarian): 3.11 µM
GI50 (MCF7 breast): 2.42 µM
TGI (MCF7 breast): 7.01 µM
GI50 (LOX IMVI melanoma): 1.75 µM
TGI (LOX IMVI melanoma): 3.17 µM
GI50 (SF-268 CNS): 1.99 µM
TGI (SF-268 CNS): 4.66 µM
GI50 (HOP-62 NSCLC): 1.69 µM
TGI (HOP-62 NSCLC): 3.42 µM
GI50 (T-47D breast): 2.07 µM
TGI (T-47D breast): 4.75 µM
GI50 (KM12 colon): 8.65 µM
TGI (KM12 colon): > 100 µM
GI50 (SN12C renal): 2.33 µM
TGI (SN12C renal): 6.8 µM
GI50 (HS 578T breast): 2.07 µM
TGI (HS 578T breast): 4.82 µM
GI50 (MALME-3M melanoma): 2.26 µM
TGI (MALME-3M melanoma): 5.57 µM
GI50 (HOP-92 NSCLC): 11.9 µM
TGI (HOP-92 NSCLC): 37.4 µM
GI50 (A549 NSCLC): 3.55 µM
TGI (A549 NSCLC): 69.7 µM
GI50 (SW-620 colon): 1.79 µM
TGI (SW-620 colon): 3.55 µM
GI50 (ACHN renal): 1.79 µM
TGI (ACHN renal): 3.35 µM
GI50 (NCI-H522 lung): 2.24 µM
TGI (NCI-H522 lung): 6.04 µM
GI50 (NCI-H226 lung): 1.63 µM
TGI (NCI-H226 lung): 3.36 µM
